ChEMBL document CHEMBL2417377, “Hit-to-lead optimization and kinase selectivity of imidazo[1,2-a]quinoxalin-4-amine derived JNK1 inhibitors” (Bioorg Med Chem Lett, 2013)

Assays:
Conditions in all cases: PC-3
[1] = biological target: Focal adhesion kinase 1 (Homo sapiens) (UniProt Q05397); experiment: Inhibition of FAK in human PC3 cell lysates at 10 uM using desthiobiotin-tagged ATP probe AX9989 followed by trypsinization by LC/MS analysis
[2] = biological target: Serine/threonine-protein kinase WNK4 (Homo sapiens) (UniProt Q96J92); experiment: Inhibition of Wnk4 in human PC3 cell lysates at 10 uM using desthiobiotin-tagged ATP probe AX9989 followed by trypsinization by LC/MS analysis
[3] = biological target: Serine/threonine-protein kinase Nek7 (Homo sapiens) (UniProt Q8TDX7); experiment: Inhibition of NEK7 in human PC3 cell lysates at 10 uM using desthiobiotin-tagged ATP probe AX9989 followed by trypsinization by LC/MS analysis
[4] = biological target: Serine/threonine-protein kinase Chk2 (Homo sapiens) (UniProt O96017); experiment: Inhibition of CHK2 in human PC3 cell lysates at 10 uM using desthiobiotin-tagged ATP probe AX9989 followed by trypsinization by LC/MS analysis
[5] = biological target: Mitogen-activated protein kinase 1 (Homo sapiens) (UniProt P28482); experiment: Inhibition of Erk2 in human PC3 cell lysates at 10 uM using desthiobiotin-tagged ATP probe AX9989 followed by trypsinization by LC/MS analysis
[6] = biological target: Ribosomal protein S6 kinase beta-2 (Homo sapiens) (UniProt Q9UBS0); experiment: Inhibition of p70S6Kbeta in human PC3 cell lysates at 10 uM using desthiobiotin-tagged ATP probe AX9989 followed by trypsinization by LC/MS analysis
[7] = biological target: Interleukin-1 receptor-associated kinase 1 (Homo sapiens) (UniProt P51617); experiment: Inhibition of IRAK1 in human PC3 cell lysates at 10 uM using desthiobiotin-tagged ATP probe AX9989 followed by trypsinization by LC/MS analysis
[8] = biological target: T1, Serine/threonine-protein kinase TAO3 (Homo sapiens) (UniProt Q9H2K8); experiment: Inhibition of TAO3 in human PC3 cell lysates at 10 uM using desthiobiotin-tagged ATP probe AX9989 followed by trypsinization by LC/MS analysis
T1 sequence (whole entry): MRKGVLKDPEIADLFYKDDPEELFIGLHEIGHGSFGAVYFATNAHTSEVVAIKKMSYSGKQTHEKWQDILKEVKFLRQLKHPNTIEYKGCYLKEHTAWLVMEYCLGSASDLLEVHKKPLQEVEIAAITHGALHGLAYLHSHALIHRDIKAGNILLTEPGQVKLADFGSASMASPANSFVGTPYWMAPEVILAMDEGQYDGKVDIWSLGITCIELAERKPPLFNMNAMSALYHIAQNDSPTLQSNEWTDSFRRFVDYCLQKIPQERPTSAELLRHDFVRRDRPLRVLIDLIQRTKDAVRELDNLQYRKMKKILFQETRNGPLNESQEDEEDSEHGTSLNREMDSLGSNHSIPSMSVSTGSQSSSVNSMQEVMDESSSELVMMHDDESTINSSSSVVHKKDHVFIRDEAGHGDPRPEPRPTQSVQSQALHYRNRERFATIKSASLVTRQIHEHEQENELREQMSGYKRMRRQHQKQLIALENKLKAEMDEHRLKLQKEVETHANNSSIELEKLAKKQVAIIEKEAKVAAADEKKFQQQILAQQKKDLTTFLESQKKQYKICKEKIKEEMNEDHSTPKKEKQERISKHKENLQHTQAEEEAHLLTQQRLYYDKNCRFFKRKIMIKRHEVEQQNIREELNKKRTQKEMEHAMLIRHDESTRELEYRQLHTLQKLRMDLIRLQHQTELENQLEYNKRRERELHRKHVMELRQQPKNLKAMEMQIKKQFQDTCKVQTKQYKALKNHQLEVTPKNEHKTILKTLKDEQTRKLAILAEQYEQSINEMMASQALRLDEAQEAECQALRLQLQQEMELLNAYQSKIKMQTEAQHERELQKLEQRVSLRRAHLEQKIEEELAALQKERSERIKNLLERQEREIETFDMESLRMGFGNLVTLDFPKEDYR

[9] = biological target: T2, Ephrin type-B receptor 4 (Homo sapiens) (UniProt P54760); experiment: Inhibition of EphB4 in human PC3 cell lysates at 10 uM using desthiobiotin-tagged ATP probe AX9989 followed by trypsinization by LC/MS analysis
T2 sequence (whole entry): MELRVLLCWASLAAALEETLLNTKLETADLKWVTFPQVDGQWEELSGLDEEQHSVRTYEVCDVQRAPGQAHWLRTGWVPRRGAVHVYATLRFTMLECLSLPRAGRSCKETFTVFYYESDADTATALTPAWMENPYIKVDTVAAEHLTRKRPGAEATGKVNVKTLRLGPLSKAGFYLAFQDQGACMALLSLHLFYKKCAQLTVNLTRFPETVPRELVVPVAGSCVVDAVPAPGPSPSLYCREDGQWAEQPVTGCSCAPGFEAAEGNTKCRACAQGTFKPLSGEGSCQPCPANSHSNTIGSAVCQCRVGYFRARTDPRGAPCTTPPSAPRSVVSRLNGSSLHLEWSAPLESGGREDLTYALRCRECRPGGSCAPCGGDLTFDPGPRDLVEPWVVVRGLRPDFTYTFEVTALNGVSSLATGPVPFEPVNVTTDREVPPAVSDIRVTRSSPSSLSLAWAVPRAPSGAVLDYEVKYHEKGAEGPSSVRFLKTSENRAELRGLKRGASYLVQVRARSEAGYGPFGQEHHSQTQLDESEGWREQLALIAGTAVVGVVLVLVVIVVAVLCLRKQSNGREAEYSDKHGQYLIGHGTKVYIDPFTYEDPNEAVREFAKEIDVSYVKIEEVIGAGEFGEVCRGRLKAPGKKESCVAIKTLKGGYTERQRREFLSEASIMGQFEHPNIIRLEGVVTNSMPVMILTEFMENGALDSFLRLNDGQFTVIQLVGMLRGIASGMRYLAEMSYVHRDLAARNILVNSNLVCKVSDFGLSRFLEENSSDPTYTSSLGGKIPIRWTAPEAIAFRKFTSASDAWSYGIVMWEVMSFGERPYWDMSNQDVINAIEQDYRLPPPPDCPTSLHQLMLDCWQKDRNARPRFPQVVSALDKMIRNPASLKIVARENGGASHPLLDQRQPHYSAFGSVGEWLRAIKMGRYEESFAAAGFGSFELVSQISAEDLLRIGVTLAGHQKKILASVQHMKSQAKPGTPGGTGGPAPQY

[10] = biological target: CaM kinase II (Homo sapiens) (UniProt Q13557+Q13555+Q13554+Q9UQM7); experiment: Inhibition of CaMK2alpha/CaMK2beta/CaMK2delta/CaMK2gamma in human PC3 cell lysates at 10 uM using desthiobiotin-tagged ATP probe AX9989 followed by trypsinization by LC/MS analysis; format: protein assay
[11] = biological target: Casein kinase II subunit alpha' (Homo sapiens) (UniProt P19784); experiment: Inhibition of CK2alpha2 in human PC3 cell lysates at 10 uM using desthiobiotin-tagged ATP probe AX9989 followed by trypsinization by LC/MS analysis

Measured: inhibition

Serine/threonine-protein kinase Chk2 (Homo sapiens), sequence (O96017 whole entry): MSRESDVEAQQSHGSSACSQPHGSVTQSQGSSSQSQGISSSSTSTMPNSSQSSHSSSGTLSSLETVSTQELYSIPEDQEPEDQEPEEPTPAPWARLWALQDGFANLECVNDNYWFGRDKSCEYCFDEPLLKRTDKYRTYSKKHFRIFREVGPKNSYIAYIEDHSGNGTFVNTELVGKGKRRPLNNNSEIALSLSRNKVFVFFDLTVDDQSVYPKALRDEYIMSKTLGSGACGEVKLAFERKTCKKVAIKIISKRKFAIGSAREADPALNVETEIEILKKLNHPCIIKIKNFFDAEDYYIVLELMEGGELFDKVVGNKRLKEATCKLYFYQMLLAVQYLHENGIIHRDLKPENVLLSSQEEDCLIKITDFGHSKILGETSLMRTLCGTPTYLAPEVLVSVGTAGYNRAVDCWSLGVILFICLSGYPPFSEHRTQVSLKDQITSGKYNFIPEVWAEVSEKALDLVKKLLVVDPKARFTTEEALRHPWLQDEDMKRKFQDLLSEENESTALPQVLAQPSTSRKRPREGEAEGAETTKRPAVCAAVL
Mitogen-activated protein kinase 1 (Homo sapiens), sequence (P28482 whole entry): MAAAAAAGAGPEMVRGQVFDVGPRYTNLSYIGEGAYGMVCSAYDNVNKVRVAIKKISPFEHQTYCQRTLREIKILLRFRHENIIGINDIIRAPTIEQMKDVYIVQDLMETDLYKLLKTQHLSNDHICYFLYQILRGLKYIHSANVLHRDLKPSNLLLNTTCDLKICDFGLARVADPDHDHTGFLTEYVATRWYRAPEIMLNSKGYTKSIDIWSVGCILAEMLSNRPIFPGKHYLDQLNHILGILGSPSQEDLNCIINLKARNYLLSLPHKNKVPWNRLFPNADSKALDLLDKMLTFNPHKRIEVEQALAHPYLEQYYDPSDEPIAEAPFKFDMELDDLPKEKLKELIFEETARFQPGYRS
Focal adhesion kinase 1 (Homo sapiens), sequence (Q05397 2-1052 limits assumed): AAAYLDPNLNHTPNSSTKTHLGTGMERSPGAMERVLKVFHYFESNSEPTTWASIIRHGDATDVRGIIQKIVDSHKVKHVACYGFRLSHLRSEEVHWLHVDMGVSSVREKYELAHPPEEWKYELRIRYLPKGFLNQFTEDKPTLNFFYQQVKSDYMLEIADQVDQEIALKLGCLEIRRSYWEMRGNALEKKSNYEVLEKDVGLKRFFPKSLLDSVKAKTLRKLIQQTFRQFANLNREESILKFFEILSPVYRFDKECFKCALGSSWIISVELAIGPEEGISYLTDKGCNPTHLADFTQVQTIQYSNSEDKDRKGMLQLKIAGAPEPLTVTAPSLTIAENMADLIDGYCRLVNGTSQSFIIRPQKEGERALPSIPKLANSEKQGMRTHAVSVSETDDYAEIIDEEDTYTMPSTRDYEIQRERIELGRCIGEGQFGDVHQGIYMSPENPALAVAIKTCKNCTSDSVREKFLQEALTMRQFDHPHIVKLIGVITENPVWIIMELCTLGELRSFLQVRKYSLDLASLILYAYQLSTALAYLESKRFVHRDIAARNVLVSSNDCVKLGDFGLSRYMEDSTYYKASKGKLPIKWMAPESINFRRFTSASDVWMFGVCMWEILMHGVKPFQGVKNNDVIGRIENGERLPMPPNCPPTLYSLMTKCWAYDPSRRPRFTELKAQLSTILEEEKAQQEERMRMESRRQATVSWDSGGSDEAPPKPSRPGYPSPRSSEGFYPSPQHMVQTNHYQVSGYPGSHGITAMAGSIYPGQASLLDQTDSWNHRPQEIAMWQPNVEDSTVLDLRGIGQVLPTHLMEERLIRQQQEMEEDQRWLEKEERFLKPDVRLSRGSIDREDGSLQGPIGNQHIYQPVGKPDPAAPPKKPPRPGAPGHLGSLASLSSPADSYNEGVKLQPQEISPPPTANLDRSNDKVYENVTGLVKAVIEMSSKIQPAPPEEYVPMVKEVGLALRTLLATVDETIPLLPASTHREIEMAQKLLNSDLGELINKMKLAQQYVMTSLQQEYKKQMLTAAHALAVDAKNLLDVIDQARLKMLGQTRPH
Serine/threonine-protein kinase Nek7 (Homo sapiens), sequence (Q8TDX7 whole entry, looked up): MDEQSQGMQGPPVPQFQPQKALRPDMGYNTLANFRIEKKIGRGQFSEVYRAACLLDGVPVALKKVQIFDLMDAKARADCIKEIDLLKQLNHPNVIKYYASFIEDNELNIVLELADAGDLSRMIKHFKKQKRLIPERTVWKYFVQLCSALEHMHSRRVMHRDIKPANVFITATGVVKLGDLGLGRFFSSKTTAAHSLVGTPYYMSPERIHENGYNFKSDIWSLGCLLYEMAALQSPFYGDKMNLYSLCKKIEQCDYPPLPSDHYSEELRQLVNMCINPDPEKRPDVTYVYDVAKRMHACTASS
Ribosomal protein S6 kinase beta-2 (Homo sapiens), sequence (Q9UBS0 whole entry): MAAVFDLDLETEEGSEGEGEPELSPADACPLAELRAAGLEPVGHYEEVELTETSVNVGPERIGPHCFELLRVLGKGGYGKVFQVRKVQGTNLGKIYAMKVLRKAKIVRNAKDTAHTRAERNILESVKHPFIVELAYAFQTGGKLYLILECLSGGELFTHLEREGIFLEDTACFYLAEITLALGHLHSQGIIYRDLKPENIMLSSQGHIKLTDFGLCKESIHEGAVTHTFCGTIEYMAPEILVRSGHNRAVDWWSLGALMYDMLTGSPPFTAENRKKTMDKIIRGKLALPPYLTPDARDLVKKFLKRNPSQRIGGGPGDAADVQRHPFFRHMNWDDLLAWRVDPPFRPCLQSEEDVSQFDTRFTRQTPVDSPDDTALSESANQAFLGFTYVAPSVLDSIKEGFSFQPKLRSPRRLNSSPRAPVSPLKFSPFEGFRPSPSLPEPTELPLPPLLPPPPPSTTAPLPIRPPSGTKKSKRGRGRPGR
Interleukin-1 receptor-associated kinase 1 (Homo sapiens), sequence (P51617 whole entry, looked up): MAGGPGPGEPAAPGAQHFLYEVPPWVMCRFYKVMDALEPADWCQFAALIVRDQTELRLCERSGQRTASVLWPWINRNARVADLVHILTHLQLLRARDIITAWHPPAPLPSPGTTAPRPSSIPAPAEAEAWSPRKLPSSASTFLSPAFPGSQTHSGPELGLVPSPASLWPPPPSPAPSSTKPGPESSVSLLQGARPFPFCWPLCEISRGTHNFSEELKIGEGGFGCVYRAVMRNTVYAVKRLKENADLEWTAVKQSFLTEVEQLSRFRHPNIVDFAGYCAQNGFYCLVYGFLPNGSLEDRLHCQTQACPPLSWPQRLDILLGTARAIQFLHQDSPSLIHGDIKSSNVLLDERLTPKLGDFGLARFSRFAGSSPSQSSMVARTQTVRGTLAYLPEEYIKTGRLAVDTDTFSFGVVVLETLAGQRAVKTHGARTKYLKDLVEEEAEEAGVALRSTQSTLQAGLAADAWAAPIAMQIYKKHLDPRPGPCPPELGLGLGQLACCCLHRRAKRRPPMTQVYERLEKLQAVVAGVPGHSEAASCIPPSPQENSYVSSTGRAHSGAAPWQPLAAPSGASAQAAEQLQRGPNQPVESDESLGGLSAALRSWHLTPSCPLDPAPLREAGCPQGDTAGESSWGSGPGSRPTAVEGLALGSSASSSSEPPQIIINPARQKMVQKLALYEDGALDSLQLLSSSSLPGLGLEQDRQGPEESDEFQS
Serine/threonine-protein kinase WNK4 (Homo sapiens), sequence (Q96J92 whole entry): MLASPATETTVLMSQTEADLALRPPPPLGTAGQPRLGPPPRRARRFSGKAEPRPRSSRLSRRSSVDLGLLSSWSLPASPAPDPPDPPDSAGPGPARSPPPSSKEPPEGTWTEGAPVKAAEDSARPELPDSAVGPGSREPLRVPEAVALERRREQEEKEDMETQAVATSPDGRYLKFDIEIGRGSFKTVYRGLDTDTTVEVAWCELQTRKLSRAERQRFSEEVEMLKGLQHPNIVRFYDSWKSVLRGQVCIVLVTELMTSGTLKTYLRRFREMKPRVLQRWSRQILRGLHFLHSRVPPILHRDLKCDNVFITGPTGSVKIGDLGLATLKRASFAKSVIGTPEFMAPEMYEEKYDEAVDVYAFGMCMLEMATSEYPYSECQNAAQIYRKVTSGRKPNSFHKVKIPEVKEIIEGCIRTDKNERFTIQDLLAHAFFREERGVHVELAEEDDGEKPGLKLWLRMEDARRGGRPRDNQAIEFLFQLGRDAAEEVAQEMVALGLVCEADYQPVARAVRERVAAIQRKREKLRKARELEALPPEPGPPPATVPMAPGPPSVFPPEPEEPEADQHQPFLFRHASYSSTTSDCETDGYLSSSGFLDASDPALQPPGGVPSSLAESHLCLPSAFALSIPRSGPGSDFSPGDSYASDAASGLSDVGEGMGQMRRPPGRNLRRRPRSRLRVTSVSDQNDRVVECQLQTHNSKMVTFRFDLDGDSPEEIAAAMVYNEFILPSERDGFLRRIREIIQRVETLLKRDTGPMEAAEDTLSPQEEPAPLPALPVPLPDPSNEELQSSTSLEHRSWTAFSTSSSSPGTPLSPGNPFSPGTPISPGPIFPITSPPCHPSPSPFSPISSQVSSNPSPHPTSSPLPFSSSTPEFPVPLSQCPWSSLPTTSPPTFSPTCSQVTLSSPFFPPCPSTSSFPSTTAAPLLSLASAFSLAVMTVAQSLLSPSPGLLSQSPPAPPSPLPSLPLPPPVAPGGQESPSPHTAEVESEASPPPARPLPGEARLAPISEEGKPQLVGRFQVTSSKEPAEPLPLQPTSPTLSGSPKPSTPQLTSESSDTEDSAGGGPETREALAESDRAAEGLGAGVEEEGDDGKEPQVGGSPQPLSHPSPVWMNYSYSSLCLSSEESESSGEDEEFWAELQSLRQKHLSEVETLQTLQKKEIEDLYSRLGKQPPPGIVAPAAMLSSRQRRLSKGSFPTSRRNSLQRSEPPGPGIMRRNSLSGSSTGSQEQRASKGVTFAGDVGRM
Casein kinase II subunit alpha' (Homo sapiens), sequence (P19784 whole entry, looked up): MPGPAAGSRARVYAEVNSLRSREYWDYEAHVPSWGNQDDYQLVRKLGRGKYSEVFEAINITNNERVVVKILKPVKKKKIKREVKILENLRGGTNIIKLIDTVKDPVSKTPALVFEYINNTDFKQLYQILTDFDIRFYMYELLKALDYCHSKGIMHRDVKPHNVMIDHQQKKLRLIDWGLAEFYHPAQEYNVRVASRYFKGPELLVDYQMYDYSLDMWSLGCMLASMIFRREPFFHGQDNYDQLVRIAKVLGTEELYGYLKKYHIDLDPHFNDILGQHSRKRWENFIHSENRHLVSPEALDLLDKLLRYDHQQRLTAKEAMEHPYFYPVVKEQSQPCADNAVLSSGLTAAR

CCC[C@@H](NC(=O)c1ccc2nc(N[C@H]3CC[C@H](O)CC3)c3nccn3c2c1)c1ccccc1
< 35%: [1] | [2] | [3] | [4] | [5] | [6] | [7] | [8] | [9] | [10] | [11]

NC(=O)c1ccc2nc(N[C@H]3CC[C@H](O)CC3)c3nccn3c2c1
< 35%: [1] | [2] | [3] | [4] | [5] | [6] | [7] | [8] | [9] | [10] | [11]

CC(C)(NC(=O)c1ccc2nc(N[C@H]3CC[C@H](O)CC3)c3nccn3c2c1)c1ccccc1
< 35%: [1] | [2] | [3] | [4] | [5] | [6] | [7] | [8] | [9] | [10] | [11]

O=C(NC1(c2ccccc2)CCC1)c1ccc2nc(N[C@H]3CC[C@H](O)CC3)c3nccn3c2c1
< 35%: [1] | [2] | [3] | [4] | [5] | [6] | [7] | [8] | [9] | [10] | [11]

O=C(NC1(Cc2ccc(F)cc2)CC1)c1ccc2nc(N[C@H]3CC[C@H](O)CC3)c3nccn3c2c1
< 35%: [1] | [2] | [3] | [4] | [5] | [6] | [7] | [8] | [9] | [10] | [11]
